Laboratory results as given in US6124460A, “Isoquinuclidine derivatives, method of manufacturing the same and therapeutic agents for hypercholesterolemia containing these compounds” (Kotobuki Pharmaceutical Co. Ltd., priority 1998, dated 2000).
Counter-ions that a name gives are not always drawn.

Legend:
[1] = target: T1, Squalene Synthase in Rat Liver Microsomes (Rattus norvegicus, UniProt Q02769); test: Assay of squalene synthase (SQS) in rat liver microsomes; type: biochemical, male Sprague-Dawley rat; conditions: for IC50: 2.5 μM FPP, pH 7.4, 30 min at 37° C., read-out: Inhibition of SQS IC50; for Inhibition of SQS (N.E.; no effect at a dose in the parentheses): at 10^-5 M
T1 construct: microsomes were prepared from male Sprague-Dawley rat; from tissue; host or cells: rat liver microsomes (male Sprague-Dawley)
T1 sequence (Q02769 1-416): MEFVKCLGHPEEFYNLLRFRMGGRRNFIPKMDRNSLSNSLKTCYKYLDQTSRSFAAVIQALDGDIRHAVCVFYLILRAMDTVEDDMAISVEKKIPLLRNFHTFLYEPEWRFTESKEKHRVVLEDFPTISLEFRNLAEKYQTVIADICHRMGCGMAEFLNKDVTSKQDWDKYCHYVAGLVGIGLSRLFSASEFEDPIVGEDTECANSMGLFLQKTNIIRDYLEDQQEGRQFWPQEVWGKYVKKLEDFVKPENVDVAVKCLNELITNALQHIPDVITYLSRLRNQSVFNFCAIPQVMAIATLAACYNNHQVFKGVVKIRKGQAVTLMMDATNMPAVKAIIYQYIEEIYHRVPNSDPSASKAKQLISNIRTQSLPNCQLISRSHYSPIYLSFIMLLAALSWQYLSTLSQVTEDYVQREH
Method: 1. Assay of Squalene Synthase in Rat Liver Microsomes Squalene synthase assay was performed in accordance with the method described by [NT] (Biochem. Pharmacol., 51, 1477 (1996)). That is to say, microsomes were prepared from male Sprague-Dawley rat (weight range 250-300 g) by homogenising in 50 mM phosphate buffer, pH 7.4, 5.0 mM MgCl2, 1.0 mM EDTA, and 1.0 mM dithiothreitol using a polytron (Kinetica, Sweden). The homogenates were centrifuged at 10,000 g for 20 min at 4° C., and, after spinning the supernatants were poured into the tube through cotton gauze. Microsomes were then isolated from the supernatant by centrifugation at 178,000 g for 90 min at 4° C. Microsomes were then resuspended in homogenisation buffer and stored in aliquots at -80° C. until use. For in vitro studies, the compounds were dissolved in DMSO. The squalene synthase reaction system in a volume of 100 μl contained 50 mM phosphate buffer, pH 7.4, 5.0 mM MgCl2, 10 mM KF, 0.5 mM NADPH, 50 mM ascorbic acid, 20U /ml ascorbate oxidase, 2.5 μM farnesyl-pyrophosphate (FPP) and microsomes, 40 μg/ml. The compounds (in 1 μl DMSO), microsomes (in 10 μl buffer) and other reagent ([…]) were pre-incubated for 5 min at 37° C. The reactions were started by the addition of 5 μl of an aqueous solution of FPP containing about 0.1 μCi of [H] FPP; incubations were at 37° C. for 30 min. The reactions were then stopped by the addition of 50 μl of 20% KOH in 50% ethanol. […] The IC50 values were calculated.

Sterol Biosynthesis = test: Assay of sterol biosynthesis in rats (inhibition of cholesterol biosynthesis); type: in vivo; conditions: female Sprague-Dawley rats, liver; for inhibition at 30 mg/kg: po, vs vehicle-treated controls; for inhibition at 30 mg/kg / Inhibition of cholesterol biosynthesis (N.E.; no effect at a dose in the parentheses): 30 mg/kg p.o.

Structure (SMILES) | IC50 [1] [µM] | also measured
C#Cc1ccc(OCCCN2C(=O)C3CCC2CC3)cc1 [Compound 5, 2-[3-(4-ethynylphenoxy)propane-1-yl]-2-azabicyclo[2.2.2]octane-3-one] | 0.011 | ED50 (Sterol Biosynthesis; Rattus norvegicus, oral gavage, [H] mevalonolactone i.p. after 1 hr): 13.4 mg/kg
CCOC(=O)C#Cc1ccc(OCCCN2C(=O)C3CCC2CC3)cc1 [Compound 6, Ethyl 4-[3-(3-oxo-2-azabicyclo[2.2.2]octan-2-yl)propoxy]phenylpropiolate] | 3.1 | –
O=C(O)C#Cc1ccc(OCCCN2C(=O)C3CCC2CC3)cc1 [Compound 7, 4-[3-(3-oxo-2-azabicyclo[2.2.2]octan-2-yl)propoxy]phenylpropiolic acid] | 0.49 | –
C#Cc1ccc(OCCCN2CC3CCC2CC3)cc1 [Compound 10, 2-[3-(4-ethynylphenoxy)propane-1-yl]-2-azabicyclo[2.2.2]octane hydrochloride] | 0.019 | inhibition at 30 mg/kg (Sterol Biosynthesis; Rattus norvegicus): 48.6%
CCOC(=O)C#Cc1ccc(OCCCN2CC3CCC2CC3)cc1 [Compound 12, Ethyl 4-[3-(2-azabicyclo[2.2.2]octan-2-yl)propoxy]phenylpropiolate hydrochloride] | 0.064 | –
C#Cc1ccc(OCCN2C(=O)C3CCC2CC3)cc1 [Compound 13, 2-[2-(4-ethynylphenoxy)ethyl]-2-azabicyclo[2.2.2]octane-3-one] | – | Inhibition of SQS (N.E.; no effect at a dose in the parentheses) [1]: N.E.; inhibition at 30 mg/kg (Sterol Biosynthesis; Rattus norvegicus): 30.3%
C#Cc1ccc(OCCCCN2C(=O)C3CCC2CC3)cc1 [Compound 14, 2-[4-(4-ethynylphenoxy)butane-1-yl]-2-azabicyclo[2.2.2]-octane-3-one] | 0.49 | –
CCOC(=O)c1ccc(C#Cc2ccc(OCCCN3C(=O)C4CCC3CC4)cc2)cc1 [Compound 15, Ethyl 4-[4-[3-(3-oxo-2-azabicyclo[2.2.2]octan-2-yl)propoxy]phenylethynyl]-benzoate] | 0.41 | –
O=C(O)c1ccc(C#Cc2ccc(OCCCN3C(=O)C4CCC3CC4)cc2)cc1 [Compound 16, 4-[4-[3-(3-oxo-2-azabicyclo[2.2.2]octan-2-yl)propoxy]phenylethynyl]-benzoic acid] | 0.023 | Inhibition of cholesterol biosynthesis (N.E.; no effect at a dose in the parentheses) (Sterol Biosynthesis): N.E.
C#Cc1ccc(OCCCN2C(=O)C3CCC2CC3)c(CC=C)c1 [Compound 37, 2-[3-[(2-allyl-4-ethynyl)phenoxy]propane-1-yl]-2-azabicyclo[2.2.2]oct-3-one] | – | Inhibition of SQS (N.E.; no effect at a dose in the parentheses) [1]: N.E.

Now from value to compound, other results behind:

IC50 [1] [µM] | Structure (SMILES) | also measured
0.039 | Cl.O=C(O)c1ccc(C#Cc2ccc(OCCCN3CC4CCC3CC4)cc2)cc1 [Compound 19, 4-[4-[3-(2-azabicyclo[2.2.2]octan-2-yl)propoxy]phenylethynyl]-benzoic acid hydrochloride] | Inhibition of cholesterol biosynthesis (N.E.; no effect at a dose in the parentheses) (Sterol Biosynthesis): N.E.
0.69 | CCOC(=O)c1ccc(C#Cc2ccc(OCCCN3CC4CCC3CC4)cc2)cc1 [Compound 20, Ethyl 4-[4-[3-(2-azabicyclo[2.2.2]octan-2-yl)propoxy]phenylethynyl]-benzoate hydrochloride] | –
0.056 | O=C(O)c1ccc(C#Cc2ccc(OCCCN3C(=O)C4CCC3CC4)cc2)s1 [Compound 21, 5-[4-[3-(3-oxo-2-azabicyclo[2.2.2]octan-2-yl)propoxy]phenylethynyl]-thiophene-2-carboxylic acid] | –
0.015 | O=C1C2CCC(CC2)N1CCCOc1ccc(C#Cc2cccc3ncccc23)cc1 [Compound 22, 2-[3-[4-(quinolin-5-yl-ethynyl)phenoxy]propan-1-yl]-2-azabicyclo[2.2.2]-octan-3-one hydrochloride] | inhibition at 30 mg/kg (Sterol Biosynthesis; Rattus norvegicus): 25.1%
0.069 | O=C1C2CCC(CC2)N1CCCOc1ccc(C#Cc2ccc(-c3cccc4ncccc34)cc2)cc1 [Compound 23, 2-[3-[4-[4-(quinolin-5-yl)phenylethynyl]phenoxy]propan-1-yl]-2-azabicyclo[2.2.2]octan-3-one hydrochloride] | inhibition at 30 mg/kg (Sterol Biosynthesis; Rattus norvegicus): 46.7%
56 | O=C1C2CCC(CC2)N1CCCOc1ccc(C#Cc2ccc(N3C(=O)C4CCC3CC4)cc2)cc1 [Compound 24, 2-[3-[4-[4-(3-oxo-2-azabicyclo[2.2.2]octan-2-yl)phenylethynyl]phenoxy]propan-1-yl]-2-azabicyclo[2.2.2]octan-3-one] | –
0.031 | C(#Cc1cccc2ncccc12)c1ccc(OCCCN2CC3CCC2CC3)cc1 [Compound 25, 2-[3-[4-(quinolin-5-yl-ethynyl)phenoxy]propan-1-yl]-2-azabicyclo[2.2.2]-octane dihydrochloride] | –
0.011 | C#Cc1ccc(OCCCN2CC3CCC2CC3)c(CC=C)c1 [Compound 38, 2-[3-[(2-Allyl-4-ethynyl)phenoxy]propane-1-yl]-2-azabicyclo[2.2.2]octane hydrochloride] | inhibition at 30 mg/kg (Sterol Biosynthesis; Rattus norvegicus): 50.4%
